Results as given in patent publication US20210369846A1 (priority 2018, published 2021).
Several values for one entry are separate records, joined by “and”; a condition that tells them apart may be missing. Identical values can stand only once. Entries after “also recorded” stand apart in the source; their conditions may differ. Marks after values point to notes of the source that are not given here.

Experiments:
[1] = tested on: HMEC-1 human vascular endothelial cells
[2] = tested on: L929 mouse fibroblasts
[3] = tested on: blood
[4] = Particle size distribution of O/W emulsions with Accusizer 780 Optical Particle Sizer; type: physicochemical; details: O/W emulsion; footnote c: measured with Accusizer 780 Optical Particle Sizer
Method: In an exemplary method of preparation, 180 mg of the surfactant was dissolved in 9 mL of ultrapure water (MilliQ), then 1 mL of Perfluorodecalin was added to the solution. The mixture was sonicated using an UP400St Hielscher ultrasonic homogenizer. Operation parameters of the device: A=90% (amplitude), continuous operation mode, sonotrode type—H14. The process of ultrasonic homogenization was carried out for about 2 minutes, while the reaction vessel was intensely cooled using an ice bath. 10 mL of the o/w emulsion with 10% v/v of the perfluorinated phase relative to the aqueous phase was obtained. As can be appreciated, this method is merely exemplary, and other methods or preparation approaches may be used.
The emulsion particle size distribution was determined using the Accusizer 780 Optical Particle Sizer PSS NICOMP device. A series of dilutions of the analyzed emulsion were prepared: 10-fold, 100-fold and 1000-fold with ultrapure water (MilliQ), in triplicate. The particle size distribution of the 1000-fold diluted emulsion was examined, a minimum of 3 measurements were taken, preparing approximately 30 mL of the diluted emulsion for each one of them. The results were presented by the several values: the average diameter (given in μm), and the percentage number of particles in different ranges (for example, in the diameter range 0.5-2 μm, 2-5 μm, 5-10 μm, >10 μm). The values from these three measurements were averaged and standard deviation was calculated.

[5] = tested on: L929 and HMEC-1 cell lines
[6] = tested on: male Sprague Dawley rats; test: Red blood cells substitute in vivo test: gradual bleeding with compensation in rats under general anaesthesia; set-up: species or system rat; details: for Amount of 5-min intervals (duration until cardiac cessation, per rat): exchange of 5% of blood volume per interval; for Amount of 5-min intervals (duration until cardiac cessation, per rat) / Amount of 5-min intervals expressed in min (per rat): individual rats; for Systolic blood pressure was >40 mm Hg for: tail cuff; for pH maintained at 7.3 up to: venous blood
Method: The study protocol was approved by the Local Ethical Committee (No. WAW2/057/2018), Warsaw University of Life Sciences, Warsaw, Poland. Study was carried out by the Department of Large Animal Diseases with the Clinic of the Faculty of Veterinary Medicine of the Warsaw University of Life Sciences in Warsaw. The study involved male Sprague Dawley rats (n=19; weight, 400±20 g; age, 8 to 12 weeks) obtained from the Mossakowski Medical Research Centre, Polish Academy of Sciences (Warsaw, Poland) divided into 4 non-equal groups (table below). The animals were kept in accordance with national animal welfare guidelines.
12 h before the experiment, feedstuffs were removed from animals' cages without restrictions to the water. Animals were weighted for circulating blood volume calculation according to Lee and Blaufox (1985) and anesthetized by intramuscular injection of the mixture of Ceptor—0.1 mL (Scanvet), Butomidor—0.1 mL (Richter Pharma AG) and Bioketan—0.1 mL (Vetoquinol). Within 2 min after injection, animals were placed in the dorsal position, on Thermo-Controlled Surgery Platform (Braintree Scientific, USA) and the catheter for blood collection was implanted.
A silicone catheter (Scientific Commodities INC, USA) was inserted into the left common jugular vein towards the heart and fastened with a tie (non-absorbable twisted strand, 4-0) for best fluid delivery and blood sampling. The catheter was kept filled with Ringer's fluid between the blood removals. The catheter's patency was maintained without the use of anti-clotting agents. The skin was not stitched, a swab moistened with saline solution was applied to the wound. Then the rats were transferred to a GN 1/1 electric heating plate (temp. 37±1° C., Bartscher, Poland), where a cuff was applied to the rat's tail to measure bloodless tail blood pressure (MLT125R, ADI, Australia), connected to the system NIBP (Non-Invasive Blood Pressure, ADI, Australia) and eight-channel PowerLab (ADI, Australia) and PC. Throughout the experiment, pulse and blood pressure were recorded in the Chart program (ADI, Australia). During the entire experiment, systolic and mean arterial blood readings were taken up to a blood pressure systolic threshold reading of 40 mm Hg between blood collections.
A total of 4 experiment variants were performed, as in the table above, using the method of gradual bleeding with compensation described in the previous experiment (5% of circulating blood). Compensations were used in subsequent experiments: Voluven fluid (Hydroxyethyl starch (HES 130/0.4), dextran 130 kDa, Fresenius Kabi) and formulations 2j3c, 2j3e and 2l3e (NanoSanguis) administered in Voluven fluid (concentration 0.5% w/v).
In venous blood samples, blood gas determinations (Siemens EPOC gasometer) were performed: pH, pCO2 (CO2 pressure, mm Hg), pO2 (oxygen pressure, mm Hg), cHCO3-(bicarbonate ion concentration, mmol/L), BE (ecf) (deficiency in blood buffering bases, mmol/L), hematocrit (Hct, %, less precise measurement than in a morphology analyzer), glucose (mg/dL), lactate (Lac, mmol/L), creatinine (Crea, mg/dL) followed by morphology (Mindray analyzer): hematocrit (hct, %), hemoglobin (g/L), red blood cell count (RBC, 10^12/L), white blood cell count (WBC, ×10^9/L) and platelet count (PLT, ×10^9/L). […] The results are given in the attached Excel spreadsheet. Blood for other biochemical analyses was centrifuged and frozen (−20° C.). Collected organ (liver, kidney, lung and heart) samples were fixed in buffered formalin, and after 48 hours. transferred to 70% ethyl alcohol and stored for histological examination. Histological examination was performed after routine staining of the hematoxylin and eosin sections.

With `O=C([O-])CSCCC(F)(F)C(F)(F)C(F)(F)C(F)(F)C(F)(F)C(F)(F)C(F)(F)C(F)(F)F.[Na+]` [2cNa] the “Maximum Non-Cytotoxic Concentration HMEC-1” value [1] was 0.2%, the “Maximum Non-Cytotoxic Concentration L929” value [2] was 1% and the “Maximum Non-Hemolytic Concentration” value [3] was 0.5%. The Average diameter [4] was 710 ± 20 ^c nm.
In the case of `O=C([O-])CCC(=O)OCCC(F)(F)C(F)(F)C(F)(F)C(F)(F)C(F)(F)C(F)(F)F.[K+]` [2iK], the “Maximum Non-Cytotoxic Concentration HMEC-1” value [1] is reported as 0.25%, the “Maximum Non-Cytotoxic Concentration L929” value [2] is reported as <0.25** % and the “Maximum Non-Hemolytic Concentration” value [3] is reported as 0.02%. The Average diameter [4] was 880 ± 40 ^c nm.
In the case of `O=C(O)CCCC(=O)OCCC(F)(F)C(F)(F)C(F)(F)C(F)(F)C(F)(F)C(F)(F)C(F)(F)C(F)(F)F` [2l3k], the “Maximum Non-Cytotoxic Concentration HMEC-1” value [1] is reported as >1.00%, the “Maximum Non-Cytotoxic Concentration L929” value [2] is reported as >1.00% and the “Maximum Non-Hemolytic Concentration” value [3] is reported as >2.00%. For the same molecule, the Cytotoxic potential [5] was “low cytotoxic potential”.
With `O=C([O-])CCC(=O)OCCC(F)(F)C(F)(F)C(F)(F)C(F)(F)C(F)(F)C(F)(F)C(F)(F)C(F)(F)F.[K+]` [2jK] the “Maximum Non-Cytotoxic Concentration HMEC-1” value [1] was 0.5%, the “Maximum Non-Cytotoxic Concentration L929” value [2] was <0.25% and the “Maximum Non-Hemolytic Concentration” value [3] was >2.00%. The Average diameter [4] was 1090 ± 10 ^c nm.
In the case of `O=C([O-])CSCCC(F)(F)C(F)(F)C(F)(F)C(F)(F)C(F)(F)C(F)(F)C(F)(F)C(F)(F)F.[K+]` [2aK], the “Maximum Non-Cytotoxic Concentration HMEC-1” value [1] is reported as 1%, the “Maximum Non-Cytotoxic Concentration L929” value [2] is reported as 1% and the “Maximum Non-Hemolytic Concentration” value [3] is reported as >2.00%. The Average diameter [4] was 770 ± 20 ^c nm.
For `O=C([O-])CCC(=O)OCCC(F)(F)C(F)(F)C(F)(F)C(F)(F)C(F)(F)C(F)(F)C(F)(F)C(F)(F)F.[Na+]` [2jNa], the “Maximum Non-Cytotoxic Concentration HMEC-1” value [1] was 0.5%, the “Maximum Non-Cytotoxic Concentration L929” value [2] was <0.25% and the “Maximum Non-Hemolytic Concentration” value [3] was 1%. For the same molecule, the Average diameter [4] was 820 ± 20 ^c nm.
For `O=C(O)CCCC(=O)OCCC(F)(F)C(F)(F)C(F)(F)C(F)(F)C(F)(F)C(F)(F)C(F)(F)C(F)(F)F` [2l3e], the “Maximum Non-Cytotoxic Concentration HMEC-1” value [1] was >2.00%, the “Survival of rats higher compared to the control group receiving Voluven” value ([6]; 0.5% w/v in Voluven) was 10 intervals and the “Amount of 5-min intervals (duration until cardiac cessation, per rat)” value ([6]; 0.5% w/v in Voluven) was 10 5-min intervals and 13 5-min intervals and 21 5-min intervals and 28 5-min intervals and 31 5-min intervals. The “Amount of 5-min intervals expressed in min (per rat)” value ([6]; 0.5% w/v in Voluven) was 155 min and 60 min and 75 min and 105 min and 140 min, the “Systolic blood pressure was >40 mm Hg for” value ([6]; 0.5% w/v in Voluven) was 18-22 intervals and the “pH maintained at 7.3 up to” value ([6]; 0.5% w/v in Voluven) was 20-21 intervals. The “Change caused slower in comparison to the control group” value ([6]; control: Voluven) was “pH decrease; also recorded: increase in pCO2; also recorded: decrease in buffer base deficiency; also recorded: increase of lactate and creatinine”, the “Maximum Non-Cytotoxic Concentration L929” value [2] was >2.00% and the “Maximum Non-Hemolytic Concentration” value [3] was >2.00%.
With `O=C(O)CCC(=O)OCCC(F)(F)C(F)(F)C(F)(F)C(F)(F)C(F)(F)C(F)(F)C(F)(F)C(F)(F)F` [2j3c] the “Maximum Non-Cytotoxic Concentration HMEC-1” value [1] was 0.5%, the “Lactate concentration above physiological values (limit 8.5 mmol/L) occurred at intervals” value ([6]; 0.5% w/v in Voluven) was 15 intervals and 19 intervals and the “RBC at the end of the experiment” value ([6]; 0.5% w/v in Voluven) was ~2e+12 L⁻¹. The “Survival of rats higher compared to the control group receiving Voluven” value ([6]; 0.5% w/v in Voluven) was 7 intervals, the “WBC at the end of the experiment” value ([6]; 0.5% w/v in Voluven) was ~1e+09 L⁻¹ and the “Amount of 5-min intervals (duration until cardiac cessation, per rat)” value ([6]; 0.5% w/v in Voluven) was 24 5-min intervals and 23 5-min intervals and 18 5-min intervals (2×) and 11 5-min intervals. For the same molecule, the “Hematocrit at the end of the experiment” value ([6]; 0.5% w/v in Voluven, gradual decrease from physiological values) was “about 9%”, the “Amount of 5-min intervals expressed in min (per rat)” value ([6]; 0.5% w/v in Voluven) was 55 min and 120 min and 115 min and 90 min (2×) and the “Systolic blood pressure was >40 mm Hg for” value ([6]; 0.5% w/v in Voluven) was 12 intervals and 20 intervals. For the same molecule, the “pH maintained at 7.3 up to” value ([6]; 0.5% w/v in Voluven) was 13 intervals and 17 intervals, the “Maximum Non-Cytotoxic Concentration L929” value [2] was 0.25% and the “Maximum Non-Hemolytic Concentration” value [3] was >2.00%.
In the case of `O=C(O)CSCCC(F)(F)C(F)(F)C(F)(F)C(F)(F)C(F)(F)C(F)(F)C(F)(F)C(F)(F)F` [2a3b], the “Maximum Non-Cytotoxic Concentration HMEC-1” value [1] is reported as 0.5%, the “Maximum Non-Cytotoxic Concentration L929” value [2] is reported as 0.5% and the “Maximum Non-Hemolytic Concentration” value [3] is reported as 0.25%. The Average diameter [4] was 640 ± 10 ^c nm.
For `O=C(O)CSCCC(F)(F)C(F)(F)C(F)(F)C(F)(F)C(F)(F)C(F)(F)C(F)(F)C(F)(F)F` [2a3d], the “Maximum Non-Cytotoxic Concentration HMEC-1” value [1] was 0.1%, the “Maximum Non-Cytotoxic Concentration L929” value [2] was 0.2% and the “Maximum Non-Hemolytic Concentration” value [3] was 0.02%. For the same molecule, the Average diameter [4] was 640 ± 10 ^c nm.
